Measured values as given in US20250011368A1, “DLL3 TARGETING PEPTIDES AND CONSTRUCTS THEREOF” (MARIANA ONCOLOGY INC., priority 2023, published 2025).
Numbered stars: 1 amine (or outer) side, 2 acyl side, 3 side chain; on linkers, the order of the positions; unused ones are H or OH. Bridge positions count the residues as written; N and C are the ends. Square brackets hold non-standard residues; d marks the D form. Side chains are listed from the residue outwards. Peptide text beside a SMILES is read from it. * marks the point of attachment. ξ: configuration not given here. X9 = O=C(O)CN1CCN(CC(=O)O)CCN(CC(=O)NCCCOCCOCCOCCCN*)CCN(CC(=O)O)CC1; DOTA = O=C(O)CN1CCN(CC(=O)O)CCN(CC(=O)*)CCN(CC(=O)O)CC1; X3 = CC[C@H](c1c[nH]c2ccccc12)[C@H](N[*:1])C(=O)[*:2]; Trp(7-Cl) = N[C@@H](Cc1c[nH]c2c(Cl)cccc12)C(=O)O; PEG8 = NCCOCCOCCOCCOCCOCCOCCOCCOCCC(=O)O; γGlu = O=C(O)[C@H](CCC(=O)[*:2])N[*:1]; 2Nal = N[C@@H](Cc1ccc2ccccc2c1)C(=O)O; Suc = O=C(CCC(=O)[*:2])[*:1]; NMeA = CN[C@@H](C)C(=O)O; Aze = O=C(O)[C@@H]1CCN1; Abu = CC[C@H](N)C(=O)O; ξD = NC(CC(=O)O)C(=O)O; Sar = CNCC(=O)O

Biological target: T1, human DLL3 (Homo sapiens, UniProt Q9NYJ7)
T1 sequence (Q9NYJ7 27-618): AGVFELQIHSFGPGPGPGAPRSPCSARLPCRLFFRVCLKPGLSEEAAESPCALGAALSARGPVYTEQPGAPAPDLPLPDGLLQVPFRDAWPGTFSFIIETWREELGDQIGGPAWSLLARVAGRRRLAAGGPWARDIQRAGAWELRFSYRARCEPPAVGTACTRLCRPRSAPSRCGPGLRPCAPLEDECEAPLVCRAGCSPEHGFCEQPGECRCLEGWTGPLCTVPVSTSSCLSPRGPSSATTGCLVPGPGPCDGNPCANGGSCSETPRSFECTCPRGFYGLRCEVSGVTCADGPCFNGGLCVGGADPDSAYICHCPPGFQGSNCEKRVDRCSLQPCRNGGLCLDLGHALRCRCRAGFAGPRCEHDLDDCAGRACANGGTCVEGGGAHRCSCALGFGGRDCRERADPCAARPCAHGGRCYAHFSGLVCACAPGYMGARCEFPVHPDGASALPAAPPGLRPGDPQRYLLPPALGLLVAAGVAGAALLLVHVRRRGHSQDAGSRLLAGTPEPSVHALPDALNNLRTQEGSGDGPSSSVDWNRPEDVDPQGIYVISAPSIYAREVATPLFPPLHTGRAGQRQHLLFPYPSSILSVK
Assay: Affinity determination by Surface Plasmon Resonance (SPR)
Format: binding
Settings: 25° C., biotinylated human DLL3 immobilized on streptavidin sensor chip, 1:1 binding model; read-out: SPR KD
Method in brief: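 Biotinylated human DLL3 was captured on a streptavidin chip with a reference surface. Compounds at several concentrations were injected at 100 μL/minute in phosphate buffer (137 mM NaCl, 2.7 mM KCl, 0.05% P20, 2% DMSO). Affinity and kinetics came from 1:1 model fits of the sensorgrams.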

| Kd [nM] | Structure (SMILES) |
| --- | --- |
| < 1 | CC[C@H](C)[C@H](NC(=O)[C@@H](NC(=O)[C@H](Cc1c[nH]c2ccccc12)NC(C)=O)[C@@H](C)O)C(=O)N[C@H]1CSSC[C@@H](C(=O)N[C@@H](Cc2c[nH]c3ccccc23)C(=O)N2CCC[C@H]2C(=O)N[C@H](CCCCNC(=O)CN2CCN(CC(=O)O)CCN(CC(=O)O)CCN(CC(=O)O)CC2)C(N)=O)NC(=O)[C@H](CC(=O)O)NC(=O)[C@H](Cc2cnc[nH]2)NC(=O)[C@H](Cc2ccc3ccccc3c2)NC(=O)[C@H](CCCCN)NC(=O)[C@H](CC(N)=O)NC1=O [compound 213, Ac-W-T-I-C(3)-N-(Lys)-(2Nal)-H-D-C(3)-W-P-[D-Lys(DOTA)]-NH2] (Ac-WTICNK[2Nal]HDCWP[dK](DOTA)-NH2; disulfide 4-10) |
| 1 to 10 | CC[C@H](C)[C@H](NC(=O)[C@@H](NC(=O)[C@H](Cc1c[nH]c2c(Cl)cccc12)NC(C)=O)[C@@H](C)O)C(=O)N[C@H]1CSSC[C@@H](C(=O)N[C@@H](Cc2c[nH]c3ccccc23)C(=O)N2CCC[C@H]2C(=O)N[C@H](CCCCNC(=O)CN2CCN(CC(=O)O)CCN(CC(=O)O)CCN(CC(=O)O)CC2)C(N)=O)NC(=O)[C@H](CC(=O)O)NC(=O)[C@H](Cc2cnc[nH]2)NC(=O)[C@H](Cc2c[nH]c3ccccc23)NC(=O)[C@H](CC(N)=O)NC(=O)[C@H](CC(N)=O)NC1=O [compound 226, Ac-(7-CI-W)-T-I-C(3)-N-N-W-H-D-C(3)-W-P-[D-Lys(DOTA)]-NH2] (Ac-[Trp(7-Cl)]TICNNWHDCWP[dK](DOTA)-NH2; disulfide 4-10) |
| 1 to 10 | CC[C@H](C)[C@H](NC(=O)[C@@H](NC(=O)[C@H](Cc1c[nH]c2ccccc12)NC(C)=O)[C@@H](C)O)C(=O)N[C@H]1CSSC[C@@H](C(=O)N[C@@H](Cc2c[nH]c3ccccc23)C(=O)N(C)CC(=O)N[C@H](CCCCNC(=O)CN2CCN(CC(=O)O)CCN(CC(=O)O)CCN(CC(=O)O)CC2)C(N)=O)NC(=O)[C@H](CC(=O)O)NC(=O)[C@H](Cc2cnc[nH]2)NC(=O)[C@H](Cc2c[nH]c3ccccc23)NC(=O)[C@H](CC(N)=O)NC(=O)[C@H](CC(N)=O)NC1=O [compound 227, Ac-W-T-I-C(3)-N-N-W-H-D-C(3)-W-Sar-[D-Lys(DOTA)]-NH2] (Ac-WTICNNWHDCW[Sar][dK](DOTA)-NH2; disulfide 4-10) |
| 1 to 10 | CC[C@H](C)[C@H](NC(=O)[C@@H](NC(=O)[C@H](Cc1c[nH]c2ccccc12)NC(C)=O)[C@@H](C)O)C(=O)N[C@H]1CSSC[C@@H](C(=O)N[C@@H](Cc2c[nH]c3ccccc23)C(=O)N2CC[C@H]2C(=O)N[C@H](CCCCNC(=O)CN2CCN(CC(=O)O)CCN(CC(=O)O)CCN(CC(=O)O)CC2)C(N)=O)NC(=O)[C@H](CC(=O)O)NC(=O)[C@H](Cc2cnc[nH]2)NC(=O)[C@H](Cc2c[nH]c3ccccc23)NC(=O)[C@H](CC(N)=O)NC(=O)[C@H](CC(N)=O)NC1=O [compound 228, Ac-W-T-I-C(3)-N-N-W-H-D-C(3)-W-Aze-[D-Lys(DOTA)]-NH2] (Ac-WTICNNWHDCW[Aze][dK](DOTA)-NH2; disulfide 4-10) |
| 10 to 100 | CC[C@H](C)[C@H](NC(=O)[C@@H](NC(=O)[C@H](Cc1c[nH]c2ccccc12)NC(C)=O)[C@@H](C)O)C(=O)N[C@H]1CSSC[C@@H](C(=O)N[C@@H](Cc2c[nH]c3ccccc23)C(=O)N(C)[C@@H](C)C(=O)N[C@@H](CCCCNC(=O)CN2CCN(CC(=O)O)CCN(CC(=O)O)CCN(CC(=O)O)CC2)C(N)=O)NC(=O)[C@H](CC(=O)O)NC(=O)[C@H](Cc2c[nH]cn2)NC(=O)[C@H](Cc2c[nH]c3ccccc23)NC(=O)[C@H](CC(N)=O)NC(=O)[C@H](CC(N)=O)NC1=O [compound 229, Ac-W-T-I-C(3)-N-N-W-H-D-C(3)-W-NmeA-[D-Lys(DOTA)]-NH2] (Ac-WTICNNWHDCW[NMeA]K(DOTA)-NH2; disulfide 4-10) |
| < 1 | CC[C@H](C)[C@H](NC(=O)[C@@H](NC(=O)[C@H](Cc1c[nH]c2ccccc12)NC(C)=O)[C@@H](C)O)C(=O)N[C@H]1CSSC[C@@H](C(=O)N[C@@H](Cc2c[nH]c3ccccc23)C(=O)N2CCC[C@H]2C(=O)N[C@H](CCCCNC(=O)CNC(=O)CNC(=O)CCC(=O)NCCCOCCOCCOCCCNC(=O)CN2CCN(CC(=O)O)CCN(CC(=O)O)CCN(CC(=O)O)CC2)C(N)=O)NC(=O)[C@H](CC(=O)O)NC(=O)[C@H](Cc2cnc[nH]2)NC(=O)[C@H](Cc2ccc3ccccc3c2)NC(=O)[C@H](CC(N)=O)NC(=O)[C@H](CC(N)=O)NC1=O [compound 230, Ac-W-T-I-C(3)-N-N-(2Nal)-H-D-C(3)-W-P-[D-Lys(G-G-TTDS-DOTA)]-NH2] (Ac-WTICNN[2Nal]HDCWP[dK]([Gly-Gly-Suc-X9])-NH2; disulfide 4-10) |
| < 1 | CC[C@H](C)[C@H](NC(=O)[C@@H](NC(=O)[C@H](Cc1c[nH]c2ccccc12)NC(C)=O)[C@@H](C)O)C(=O)N[C@H]1CSSC[C@@H](C(=O)N[C@@H](Cc2c[nH]c3ccccc23)C(=O)N2CCC[C@H]2C(=O)NCC(=O)NCC(=O)N[C@@H](CO)C(=O)NCC(=O)NCC(=O)N[C@@H](CO)C(=O)N[C@H](CCCCNC(=O)CN2CCN(CC(=O)O)CCN(CC(=O)O)CCN(CC(=O)O)CC2)C(N)=O)NC(=O)[C@H](CC(=O)O)NC(=O)[C@H](Cc2cnc[nH]2)NC(=O)[C@H](Cc2ccc3ccccc3c2)NC(=O)[C@H](CC(N)=O)NC(=O)[C@H](CC(N)=O)NC1=O [compound 231, Ac-W-T-I-C(3)-N-N-(2Nal)-H-D-C(3)-W-P-G-G-S-G-G-S-[D-Lys(DOTA)]-NH2] (Ac-WTICNN[2Nal]HDCWPGGSGGS[dK](DOTA)-NH2; disulfide 4-10) |
| < 1 | CC[C@H](C)[C@H](NC(=O)[C@@H](NC(=O)[C@H](Cc1c[nH]c2ccccc12)NC(C)=O)[C@@H](C)O)C(=O)N[C@H]1CSSC[C@@H](C(=O)N[C@@H](Cc2c[nH]c3ccccc23)C(=O)N2CCC[C@H]2C(=O)NCC(=O)N[C@@H](CO)C(=O)NCC(=O)N[C@@H](CO)C(=O)NCC(=O)N[C@@H](CO)C(=O)N[C@H](CCCCNC(=O)CN2CCN(CC(=O)O)CCN(CC(=O)O)CCN(CC(=O)O)CC2)C(N)=O)NC(=O)C(CC(=O)O)NC(=O)[C@H](Cc2cnc[nH]2)NC(=O)[C@H](Cc2ccc3ccccc3c2)NC(=O)[C@H](CC(N)=O)NC(=O)[C@H](CC(N)=O)NC1=O (stereo partly drawn) [compound 232, Ac-W-T-I-C(3)-N-N-(2Nal)-H-D-C(3)-W-P-G-S-G-S-G-S-[D-Lys(DOTA)]-NH2] (Ac-WTICNN[2Nal]H[ξD]CWPGSGSGS[dK](DOTA)-NH2; disulfide 4-10) |
| < 1 | CC[C@H](C)[C@H](NC(=O)[C@@H](NC(=O)[C@H](Cc1c[nH]c2ccccc12)NC(C)=O)[C@@H](C)O)C(=O)N[C@H]1CSSC[C@@H](C(=O)N[C@@H](Cc2c[nH]c3ccccc23)C(=O)N2CCC[C@H]2C(=O)N[C@@H](CCC(=O)N[C@H](CCCCNC(=O)CN2CCN(CC(=O)O)CCN(CC(=O)O)CCN(CC(=O)O)CC2)C(N)=O)C(=O)O)NC(=O)[C@H](CC(=O)O)NC(=O)[C@H](Cc2cnc[nH]2)NC(=O)[C@H](Cc2ccc3ccccc3c2)NC(=O)[C@H](CC(N)=O)NC(=O)[C@H](CC(N)=O)NC1=O [compound 233, Ac-W-T-I-C(3)-N-N-(2Nal)-H-D-C(3)-W-P-gE-[D-Lys(DOTA)]-NH2] (Ac-WTICNN[2Nal]HDCWP[γGlu][dK](DOTA)-NH2; disulfide 4-10) |
| < 1 | CC[C@H](NC(C)=O)C(=O)N[C@H](C(=O)N[C@H](C(=O)N[C@H]1CSSC[C@@H](C(=O)N[C@@H](Cc2c[nH]c3ccccc23)C(=O)N2CCC[C@H]2C(=O)N[C@@H](CCC(=O)N[C@@H](CCC(=O)N[C@@H](CCC(=O)N[C@H](CCCCNC(=O)CN2CCN(CC(=O)O)CCN(CC(=O)O)CCN(CC(=O)O)CC2)C(N)=O)C(=O)O)C(=O)O)C(=O)O)NC(=O)[C@H](CC(=O)O)NC(=O)[C@H](Cc2cnc[nH]2)NC(=O)[C@H](Cc2ccc3ccccc3c2)NC(=O)[C@H](CC(N)=O)NC(=O)[C@H](CC(N)=O)NC1=O)[C@H](CC)c1c[nH]c2ccccc12)[C@@H](C)O [compound 234, Ac-W-T-I-C(3)-N-N-(2Nal)-H-D-C(3)-W-P-gE-gE-gE-[D-Lys(DOTA)]-NH2] (Ac-[Abu]T[X3]CNN[2Nal]HDCWP[γGlu][γGlu][γGlu][dK](DOTA)-NH2; disulfide 4-10) |
| < 1 | CC[C@H](C)[C@H](NC(=O)[C@@H](NC(=O)[C@H](Cc1c[nH]c2ccccc12)NC(C)=O)[C@@H](C)O)C(=O)N[C@H]1CSSC[C@@H](C(=O)N[C@@H](Cc2c[nH]c3ccccc23)C(=O)N2CCC[C@H]2C(=O)N2CCC[C@@H]2C(=O)NCCOCCOCCOCCOCCOCCOCCOCCOCCC(=O)N[C@H](CCCCNC(=O)CN2CCN(CC(=O)O)CCN(CC(=O)O)CCN(CC(=O)O)CC2)C(N)=O)NC(=O)[C@H](CC(=O)O)NC(=O)[C@H](Cc2cnc[nH]2)NC(=O)[C@H](Cc2ccc3ccccc3c2)NC(=O)[C@H](CC(N)=O)NC(=O)[C@H](CC(N)=O)NC1=O [compound 235, Ac-W-T-I-C(3)-N-N-(2Nal)-H-D-C(3)-W-P-(D-Pro)-PEG8-[D-Lys(DOTA)]-NH2] (Ac-WTICNN[2Nal]HDCWP[dP][PEG8][dK](DOTA)-NH2; disulfide 4-10) |
